The source of these data is patent US20200080055A1, “COMPOSITIONS AND METHODS FOR GENERATING HAIR CELLS BY UPREGULATING PI3K” (Frequency Therapeutics, Inc., priority 2018, published 2020).

Entries after “also recorded” stand apart in the source; their conditions may differ.

Assay [1] concerns cochlear Lgr5 progenitor cells. Briefly: Lgr5+ assay: expansion and enrichment of cochlear Lgr5 progenitor cells in 3D culture. The format is cell-based, mouse. The source says:
“Stem Cell Proliferation Assay” as used herein is an assay to determine the capacity for agent(s) to induce the creation of stem cells from a starting cell population. In an exemplary Stem Cell Proliferation Assay, the number of cells for an initial cell population is harvested from a Lgr5-GFP mouse such as a B6.129P2-Lgr5tm1(cre/ERT2)Cle/J mouse (also known as Lgr5-EGFP-IRES-creERT2 or Lgr5-GFP mouse, Jackson Lab Stock No: 008875) between the age of 0 to 5 days, by isolating the organ of Corti sensory epithelium and dissociating the epithelium into single cells. Approximately 5000 cells are entrapped in 40 μl of culture substrate (for example: Matrigel (Corning, Growth Factor Reduced)) and placed at the center of wells in a 24-well plate with 500 μl of an appropriate culture media, growth factors and agent being tested. Appropriate culture media and growth factors include Advanced DMEM/F12 with media Supplements (1×N2, 1×B27, 2 mM Glutamax, 10 mM HEPES, 1 mM N-acetylcysteine, and 100 U/ml Penicillin/[…] Streptomycin) and growth factors (50 ng/ml EGF, 50 ng/ml bFGF, and 50 ng/ml IGF-1) as well as the agent(s) being assessed are added into each well. Cells are cultured for 10 days in a standard cell culture incubator at 37° C. and 5% CO2, with media change every 2 days. The number of Lgr5+ cells is quantified by counting the number of cells identified as Lgr5+ in an In Vitro Lgr5 activity assay. The fraction of cells that are Lgr5+ is quantified by dividing the number of cells identified as Lgr5+ in a cell population by the total number of cells present in the cell population. The number of hair cells in a population may be measured by staining with hair cell marker (e.g., MyosinVIIa), or using an endogenous reporter of hair cell genes (e.g., Pou4f3-GFP, Atoh1-nGFP) and analyzing using flow cytometry. The fraction of cells that are hair cells is quantified by dividing the number of cells identified as hair cells in a cell population by the total number of cells present in the cell population. Gene and/or protein expression and/or activity is measured in this assay using methods known in the art such as by PCR, Nanostring, immunostaining, RNAseq, RNA hybridization, or Western blot analysis.
Neonatal Lgr5-EGFP-IRES-Cre-ER mice (The Jackson Laboratory, strain 8875) were used to analyze the effects of small molecules on cochlear stem cell expansion (see Barker et al., Nature 449, 1003-7 (2007). This strain allowed for visualization and quantification of EGFP cells.
All animal studies were conducted under an approved institutional protocol per National Institutes of Health guidelines. Using neonatal animals, cochleae were dissected and the organ of Corti (sensory epithelium) was separated from the stria vascularis (ion transport epithelium) and the modiolus (nerve tissue). Epithelia were then collected and treated with TrypLE for 15-20 minutes to obtain single cells. The cells were then filtered ([…]) and suspended in a Matrigel (Corning) dome for 3D culture seeded at 0.5 cochlea per well.
Expansion of Lgr5 Cells: Cells were cultured in a 3D system and bathed in a serum free 1:1 mixture of DMEM and F12, supplemented with Glutamax (GIBCO), N2, B27 (Invitrogen), EGF (50 ng/mL; Chemicon), bFGF (50 ng/mL; Chemicon), IGF-1 (50 ng/mL; Chemicon), and small molecules for seven days. Media was changed every other day. Treatments were run in triplicate or quadruplicate.
Lgr5 cells were quantified after 7-10 days. Cell colonies were dissociated into single cells using TrypLE. The cells were then stained with propidium iodide (PI) and analyzed using a flow cytometer to count Lgr5-EGFP cells. The percentage of viable Lgr5 cells was plotted against the concentration in GraphPad Prism.
Organ of Corti are dissected from Lgr5 GFP+ mice and dissociated as single cells as described above. Background media contains the same supplements and growth factors at the same concentrations as described above. […]

A further assay deals with HDAC. Conditions: Table 5; cited from earlier work.

`CC(C)(C)C(=O)Nc1ccc2c(c1)C(=O)C(=O)c1ccccc1-2` [SF1670]: the “enhancement of CHIR-elicited expansion and enrichment of cochlear Lgr5 progenitor cells” value in assay [1] (SF1670 0.1 uM added to CHIR) is recorded as “further enhanced”.
Regarding VO-Ohpic, in assay [1] (VO-Ohpic 3 uM added to CHIR), the “enhancement of CHIR-elicited expansion and enrichment of cochlear Lgr5 progenitor cells” value was “enhanced”.
With `Cc1c[nH]c(-c2cnc(NCCNc3ccc(C#N)cn3)nc2-c2ccc(Cl)cc2Cl)n1` [CHIR99021], in assay [1] (CHIR alone (GSK3 inhibition)), the “expansion and enrichment of cochlear Lgr5 progenitor cells in culture” value is “elicits the expansion and enrichment”.
As for `CCn1cc(C(=O)O)c(=O)c2c(N)c(F)c(NC3CCCCC3)cc21` [AS1842856], in assay [1] (AS1842856 425 nM combined with VPA 1 mM), the “enrichment of Lgr5 cells (percentage)” value is reported as “enriched according to percentage”. Besides, in assay [1] (AS1842856 425 nM in background of EFI), the “expansion of cochlear Lgr5+ progenitor cells in culture” value was “elicits the expansion”. Besides, the “LGR5+ cell growth and enrichment / expansion of cochlear progenitor cells” value in assay [1] (AS1842856 concentration series in background of EFI) was “concentration-dependent effects; also recorded: enhances expansion of cochlear progenitor cells”.
Turning to `O=C([O-])CCCc1ccccc1.[Na+]` [Na phenylbutyrate], in the assay on HDAC, the Class selectivity result is “Class I >”.
